# Data published in patent publication US4024277A, “Phosphoro-aminosulfenyl derivatives of benzofuran carbamates” (priority 1975, dated 1977).
# Assays:
# [1] = system: large milkweed bug; assay: Initial insecticidal activity, milkweed bug; type: in vivo, Oncopeltus fasciatus (Dallas); details: Oncopeltus fasciatus, 48-hour exposure, read-out: % Kill, Milkweed Bug
# Source text: (§1) a. Initial Insecticidal Activity
# (§2) In this test, a candidate insecticide, in solution, is applied to either infested or uninfested plants or containers by spraying or dipping. (The preferred test procedure varies with insect species. The dipping method is better than the spraying method, and vice versa, for certain species of insects. Also some species are better adapted to the test by infesting after the chemical treatment rather than before.) Once the tests have been established, a 48-hour exposure period is observed before reading the tests. Insect species included in these tests are Mexican bean beetle (Epilachna varivestis Mulsant), pea aphid [Acyrthosiphon pisum (Harris)], southern armyworm [Spodoptera eridania (Cramer)], twospotted spider mite (Tetranychus urticae Koch), large milkweed bug [Oncopeltus fasciatus (Dallas)], plum curculio [Conotrachelus nenuphar (Herbst)], confused flour beetle (Tribolium confusum Jacquelin duVal) and granary weevil [Sitophilus granarius (Linnaeus)]. Test results are set forth in Table I. A control sample, comprising the solution without the candidate insecticide, is also included.
# [2] = system: plum curculio; assay: Initial insecticidal activity, plum curculio; type: in vivo, Conotrachelus nenuphar (Herbst); details: Conotrachelus nenuphar, 48-hour exposure, read-out: % Kill, Plum Curculio
# Source text: as §1, §2
# [3] = system: confused flour beetle; assay: Initial insecticidal activity, confused flour beetle; type: in vivo, Tribolium confusum Jacquelin duVal; details: Tribolium confusum, 48-hour exposure, read-out: % Kill, Confused Flour Beetle
# Source text: as §1, §2
# [4] = system: Mexican bean beetle; assay: Initial insecticidal activity, Mexican bean beetle; type: in vivo, Epilachna varivestis Mulsant; details: Epilachna varivestis, 48-hour exposure, read-out: % Kill, Mexican Bean Beetle
# Source text: as §1, §2
# [5] = system: pea aphid; assay: Initial insecticidal activity, pea aphid; type: in vivo, Acyrthosiphon pisum (Harris); details: Acyrthosiphon pisum, 48-hour exposure, read-out: % Kill, Pea Aphid
# Source text: as §1, §2
# [6] = system: southern armyworm; assay: Initial insecticidal activity, southern armyworm; type: in vivo, Spodoptera eridania (Cramer); details: Spodoptera eridania, 48-hour exposure, read-out: % Kill, Southern Armyworm
# Source text: as §1, §2
# [7] = system: twospotted spider mite; assay: Initial insecticidal activity, twospotted spider mite; type: in vivo, Tetranychus urticae Koch; details: Tetranychus urticae, 48-hour exposure, read-out: % Kill, Twospotted Spider Mite
# Source text: as §1, §2
# [8] = system: large milkweed bug; assay: Seven-day residual insecticidal activity, milkweed bug; type: in vivo, Oncopeltus fasciatus (Dallas); details: Oncopeltus fasciatus, 48-hour exposure, read-out: % Kill, Milkweed Bug
# Source text: (§3) b. Seven-Day Residual Insecticidal Activity
# (§4) In this test, a candidate insecticide, in solution, is applied to uninfested plants or containers by dipping or spraying. A seven-day holding period is necessary before infestation. A 48-hour exposure period is observed before evaluation of the tests. The insect species used in this type of test are the same as those listed under initial activity.
# [9] = system: plum curculio; assay: Seven-day residual insecticidal activity, plum curculio; type: in vivo, Conotrachelus nenuphar (Herbst); details: Conotrachelus nenuphar, 48-hour exposure, read-out: % Kill, Plum Curculio
# Source text: as §3, §4
# [10] = system: confused flour beetle; assay: Seven-day residual insecticidal activity, confused flour beetle; type: in vivo, Tribolium confusum Jacquelin duVal; details: Tribolium confusum, 48-hour exposure, read-out: % Kill, Confused Flour Beetle
# Source text: as §3, §4
# [11] = system: Mexican bean beetle; assay: Seven-day residual insecticidal activity, Mexican bean beetle; type: in vivo, Epilachna varivestis Mulsant; details: Epilachna varivestis, 48-hour exposure, read-out: % Kill, Mexican Bean Beetle
# Source text: as §3, §4
# [12] = system: pea aphid; assay: Seven-day residual insecticidal activity, pea aphid; type: in vivo, Acyrthosiphon pisum (Harris); details: Acyrthosiphon pisum, 48-hour exposure, read-out: % Kill, Pea Aphid
# Source text: as §3, §4
# [13] = system: southern armyworm; assay: Seven-day residual insecticidal activity, southern armyworm; type: in vivo, Spodoptera eridania (Cramer); details: Spodoptera eridania, 48-hour exposure, read-out: % Kill, Southern Armyworm
# Source text: as §3, §4
# [14] = system: twospotted spider mite; assay: Seven-day residual insecticidal activity, twospotted spider mite; type: in vivo, Tetranychus urticae Koch; details: Tetranychus urticae, 48-hour exposure, read-out: % Kill, Twospotted Spider Mite
# Source text: as §3, §4
# [15] = system: Mexican bean beetle; assay: Systemic insecticidal activity (soil/water), Mexican bean beetle; type: in vivo, Epilachna varivestis Mulsant; details: Epilachna varivestis, 48-hour exposure, read-out: % Kill, Mexican Bean Beetle
# Procedure: (§5) c. Systemic Insecticidal Acitivity (Soil/Water)
# (§6) In this test, a candidate insecticide, in solution, is added to the soil of either uninfested pinto bean seedlings (Phaseolus vulgaris) or uninfested broad bean seedlings (Vicia faba var. Windsor). The plant species used depend on the insect species in the test. Usually, a 72-hour translocation period before infestation is required, followed by a 48-hour exposure period, before evaluation of the tests. The insect species used in the systemic tests are Mexican bean beetle, southern armyworm, pea aphid, and twospotted spider mite.
# [16] = system: pea aphid; assay: Systemic insecticidal activity (soil/water), pea aphid; type: in vivo, Acyrthosiphon pisum (Harris); details: Acyrthosiphon pisum, 48-hour exposure, read-out: % Kill, Pea Aphid
# Procedure: as §5, §6
# [17] = system: southern armyworm; assay: Systemic insecticidal activity (soil/water), southern armyworm; type: in vivo, Spodoptera eridania (Cramer); details: Spodoptera eridania, 48-hour exposure, read-out: % Kill, Southern Armyworm
# Procedure: as §5, §6
# [18] = system: twospotted spider mite; assay: Systemic insecticidal activity (soil/water), twospotted spider mite; type: in vivo, Tetranychus urticae Koch; details: Tetranychus urticae, 48-hour exposure, read-out: % Kill, Twospotted Spider Mite
# Procedure: as §5, §6
# [19] = system: twospotted spider mite; assay: Ovicidal activity against the twospotted spider mite; type: in vivo, Tetranychus urticae Koch; details: Tetranychus urticae, eggs, 7 to 10 days, read-out: % Kill (ovicidal)
# Procedure: d. Ovicidal Activity Against the Twospotted Spider Mite
# In this test, Pinto bean seedlings are infested with female twospotted spider mites; about 3-4 hours are allowed for egg deposition. Plants are then dipped in TEPP (tetraethylpyrophosphate-commercial emulsifiable concentrate (EC)) solution containing 936 ppm of active ingredient. TEPP kills motile forms on the leaf and promptly degrades without effecting the egg stage. Two to three hours after TEPP treatment the plants are again dipped -- this time into a candidate insecticide solution. The test plants are maintained for 7 to 10 days. Termination of exposure is determined by the time required to attain complete hatch in the untreated check.
# [20] = Mammalian toxicity, 14-day LD50 in rats; details: rat, in vivo, Wistar derived albino rats, method of Miller and Tainter
# Source text: The compounds of this invention are characterized by advantageous mammalian toxicity values when compared with values for related compounds. This is shown by comparative values obtained with Wistar derived albino rats in 14-day tests. The animals were fed, housed and watered in accordance with standard laboratory procedures. The 14-day LD50 determination was estimated in accord with the method of Miller and Tainter (Experimental Biology and Medicine, 57, pp. 261-264, 1944).
# [21] = system: beetles, true bugs, aphids and acarids; details: U.S. Pat. No. 3,474,171; cited from earlier work
smiles,measurement,setting,value
"CCCN(SN(C)C(=O)Oc1cccc2c1OC(C)(C)C2)P(=O)(OCC)OCC [4(c), 2,3-dihydro-2,2-dimethyl-7-benzofuranyl [(N-diethoxyphosphinyl) (N-n-propyl)aminosulfenyl][methyl]carbamate]",mortality at 39 ppm,[1],90%
same,mortality at 156 ppm,[1],100%
same,mortality at 1250 ppm,[1],100%
same,mortality at 39 ppm,[2],0%
same,mortality at 156 ppm,[2],50%
same,mortality at 1250 ppm,[2],10%
same,mortality at 39 ppm,[3],0%
same,mortality at 156 ppm,[3],8%
same,mortality at 1250 ppm,[3],65%
same,mortality at 39 ppm,[4],86%
same,mortality at 156 ppm,[4],100%
same,mortality at 1250 ppm,[4],95%
same,mortality at 39 ppm,[5],33%
same,mortality at 156 ppm,[5],100%
same,mortality at 1250 ppm,[5],100%
same,mortality at 39 ppm,[6],0%
same,mortality at 156 ppm,[6],29%
same,mortality at 1250 ppm,[6],100%
same,mortality at 39 ppm,[7],8%
same,mortality at 156 ppm,[7],37%
same,mortality at 1250 ppm,[7],100%
same,mortality at 39 ppm,[8],75%
same,mortality at 156 ppm,[8],95%
same,mortality at 1250 ppm,[8],100%
same,mortality at 39 ppm,[9],0%
same,mortality at 156 ppm,[9],0%
same,mortality at 1250 ppm,[9],19%
same,mortality at 39 ppm,[10],0%
same,mortality at 156 ppm,[10],0%
same,mortality at 1250 ppm,[10],0%
same,mortality at 39 ppm,[11],27%
same,mortality at 156 ppm,[11],62%
same,mortality at 1250 ppm,[11],100%
same,mortality at 39 ppm,[12],0%
same,mortality at 156 ppm,[12],0%
same,mortality at 1250 ppm,[12],100%
same,mortality at 39 ppm,[13]; 39 ppm,0%
same,mortality at 156 ppm,[13],5%
same,mortality at 1250 ppm,[13],60%
same,mortality at 39 ppm,[14]; 39 ppm,0%
same,mortality at 156 ppm,[14],0%
same,mortality at 1250 ppm,[14],2%
same,mortality at 10 ppm,[15],7%
same,mortality at 39 ppm,[15],65%
same,mortality at 156 ppm,[15],94%
same,mortality at 10 ppm,[16],0%
same,mortality at 39 ppm,[16],93%
same,mortality at 156 ppm,[16],100%
same,mortality at 10 ppm,[17]; 10 ppm,0%
same,mortality at 39 ppm,[17],0%
same,mortality at 156 ppm,[17],42%
same,mortality at 10 ppm,[18]; 10 ppm,0%
same,mortality at 39 ppm,[18],0%
same,mortality at 156 ppm,[18],7%
same,mortality at 156 ppm,[19],0%
same,mortality at 1250 ppm,[19],66%
"CCOP(=O)(OCC)N(CCc1ccccc1)SN(C)C(=O)Oc1cccc2c1OC(C)(C)C2 [9(c), 2,3-Dihydro-2,2-dimethyl-7-benzofuranyl [(N-diethoxyphosphinyl)(N-2-phenylethyl)aminosulfenyl][methyl-carbamate]]",mortality at 39 ppm,[1],6%
same,mortality at 156 ppm,[1],100%
same,mortality at 1250 ppm,[1],100%
same,mortality at 39 ppm,[2],0%
same,mortality at 156 ppm,[2],5%
same,mortality at 1250 ppm,[2],94%
same,mortality at 39 ppm,[3],0%
same,mortality at 156 ppm,[3],3%
same,mortality at 1250 ppm,[3],8%
same,mortality at 39 ppm,[4],60%
same,mortality at 156 ppm,[4],100%
same,mortality at 1250 ppm,[4],100%
same,mortality at 39 ppm,[5],0%
same,mortality at 156 ppm,[5],0%
same,mortality at 1250 ppm,[5],100%
same,mortality at 39 ppm,[6],0%
same,mortality at 156 ppm,[6],8%
same,mortality at 1250 ppm,[6],79%
same,mortality at 39 ppm,[7],3%
same,mortality at 156 ppm,[7],6%
same,mortality at 1250 ppm,[7],98%
same,mortality at 39 ppm,[8],0%
same,mortality at 156 ppm,[8],85%
same,mortality at 1250 ppm,[8],100%
same,mortality at 39 ppm,[9],0%
same,mortality at 156 ppm,[9],0%
same,mortality at 1250 ppm,[9],0%
same,mortality at 39 ppm,[10],0%
same,mortality at 156 ppm,[10],0%
same,mortality at 1250 ppm,[10],12%
same,mortality at 39 ppm,[11],8%
same,mortality at 156 ppm,[11],100%
same,mortality at 1250 ppm,[11],100%
same,mortality at 39 ppm,[12],6%
same,mortality at 156 ppm,[12],0%
same,mortality at 1250 ppm,[12],0%
same,mortality at 156 ppm,[13],0%
same,mortality at 1250 ppm,[13],25%
same,mortality at 156 ppm,[14],0%
same,mortality at 1250 ppm,[14],0%
same,mortality at 5 ppm,[15]; 5 ppm,0%
same,mortality at 10 ppm,[15],0%
same,mortality at 39 ppm,[15],0%
same,mortality at 156 ppm,[15],65%
same,mortality at 5 ppm,[16]; 5 ppm,0%
same,mortality at 10 ppm,[16],0%
same,mortality at 39 ppm,[16],0%
same,mortality at 156 ppm,[16],100%
same,mortality at 39 ppm,[17],0%
same,mortality at 156 ppm,[17],21%
same,mortality at 312 ppm,[17]; 312 ppm,80%
same,mortality at 39 ppm,[18],0%
same,mortality at 156 ppm,[18],0%
same,mortality at 312 ppm,[18]; 312 ppm,2%
same,mortality at 156 ppm,[19],0%
same,mortality at 1250 ppm,[19],94%
"CNC(=O)Oc1cccc2c1OC(C)(C)C2 [carbofuran, 2,3-dihydro-2,2-dimethyl-7-benzofuranyl methyl-carbamate, reference compound]",LD50 at 336 h,[20],12.2 mg/kg
same,"control of beetles, true bugs, aphids and acarids",[21],"effective in control of beetles, true bugs, aphids and acarids"
